Source: ChEMBL document CHEMBL1201862, “PubChem BioAssay data set” (2004)
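The compound was tested at five concentrations on cells cultured in 96-well plates, with a 48-hour exposure period. Here, GI50 denotes the concentration required for 50% inhibition of growth.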 Active and inactive are the calls of the source. Cut-off read from the data, not from the text of the source: active = GI50 up to about 1.1 µM and inactive = higher.

Columns and labels:
Assay in all cases: inhibition of tumour cell growth, NCI panel, 48 h
SF-295 = test system: SF-295
LOX IMVI = test system: LOX IMVI
IGROV-1 = test system: IGROV-1
MOLT-4 = test system: MOLT-4
NCI-H23 = test system: NCI-H23
EKVX = test system: EKVX
UO-31 = test system: UO-31
NCI/ADR-RES = test system: NCI/ADR-RES
HL-60 = test system: HL-60
U-251 = test system: U-251
MDA-MB-435 = test system: MDA-MB-435
RXF 393 = test system: RXF 393
NCI-H522 = test system: NCI-H522
SK-MEL-5 = test system: SK-MEL-5
K562 = test system: K562
OVCAR-5 = test system: OVCAR-5
SK-OV-3 = test system: SK-OV-3
PC-3 = test system: PC-3
HCT-116 = test system: HCT-116
SNB-75 = test system: SNB-75
Hs-578T = test system: Hs-578T
OVCAR-3 = test system: OVCAR-3
M14 = test system: M14
NCI-H226 = test system: NCI-H226
UACC-257 = test system: UACC-257
Malme-3M = test system: Malme-3M
DU-145 = test system: DU-145
MDA-N = test system: MDA-N
CCRF-CEM = test system: CCRF-CEM
OVCAR-4 = test system: OVCAR-4
786-0 = test system: 786-0
HT-29 = test system: HT-29
COLO 205 = test system: COLO 205
BT-549 = test system: BT-549
T47D = test system: T47D
HOP-92 = test system: HOP-92
MDA-MB-231 = test system: MDA-MB-231
SR = test system: SR
NCI-H460 = test system: NCI-H460
SNB-19 = test system: SNB-19
SW-620 = test system: SW-620
CAKI-1 = test system: CAKI-1
RPMI-8226 = test system: RPMI-8226
SK-MEL-28 = test system: SK-MEL-28
UACC-62 = test system: UACC-62
OVCAR-8 = test system: OVCAR-8
TK-10 = test system: TK-10
SN12C = test system: SN12C
SK-MEL-2 = test system: SK-MEL-2
SF-268 = test system: SF-268
A549 = test system: A549
SF-539 = test system: SF-539
HOP-62 = test system: HOP-62
MCF7 = test system: MCF7
HCT-15 = test system: HCT-15
A498 = test system: A498
ACHN = test system: ACHN
KM12 = test system: KM12
HCC 2998 = test system: HCC 2998

Structure (SMILES): Nc1[nH]nc2ccccc12
- GI50 (SF-295): 77.8 µM (inactive)
- GI50 (LOX IMVI): > 100 µM (inactive)
- GI50 (IGROV-1): > 100 µM (inactive)
- GI50 (MOLT-4): > 100 µM (inactive)
- GI50 (NCI-H23): > 100 µM (inactive)
- GI50 (EKVX): > 100 µM (inactive)
- GI50 (UO-31): 83.4 µM (inactive)
- GI50 (NCI/ADR-RES): > 100 µM (inactive)
- GI50 (HL-60): > 100 µM (inactive)
- GI50 (U-251): > 100 µM (inactive)
- GI50 (MDA-MB-435): > 100 µM (inactive)
- GI50 (RXF 393): > 100 µM (inactive)
- GI50 (NCI-H522): > 100 µM (inactive)
- GI50 (SK-MEL-5): > 100 µM (inactive)
- GI50 (K562): 28.5 µM (inactive)
- GI50 (OVCAR-5): 60 µM (inactive)
- GI50 (SK-OV-3): > 100 µM (inactive)
- GI50 (PC-3): > 100 µM (inactive)
- GI50 (HCT-116): > 100 µM (inactive)
- GI50 (SNB-75): > 100 µM (inactive)
- GI50 (Hs-578T): > 100 µM (inactive)
- GI50 (OVCAR-3): > 100 µM (inactive)
- GI50 (M14): > 100 µM (inactive)
- GI50 (NCI-H226): > 100 µM (inactive)
- GI50 (UACC-257): > 100 µM (inactive)
- GI50 (Malme-3M): > 100 µM (inactive)
- GI50 (DU-145): > 100 µM (inactive)
- GI50 (MDA-N): > 100 µM (inactive)
- GI50 (CCRF-CEM): > 100 µM (inactive)
- GI50 (OVCAR-4): > 100 µM (inactive)
- GI50 (786-0): > 100 µM (inactive)
- GI50 (HT-29): > 100 µM (inactive)
- GI50 (COLO 205): > 100 µM (inactive)
- GI50 (BT-549): > 100 µM (inactive)
- GI50 (T47D): > 100 µM (inactive)
- GI50 (HOP-92): > 100 µM (inactive)
- GI50 (MDA-MB-231): > 100 µM (inactive)
- GI50 (SR): 62.2 µM (inactive)
- GI50 (NCI-H460): > 100 µM (inactive)
- GI50 (SNB-19): > 100 µM (inactive)
- GI50 (SW-620): > 100 µM (inactive)
- GI50 (CAKI-1): > 100 µM (inactive)
- GI50 (RPMI-8226): > 100 µM (inactive)
- GI50 (SK-MEL-28): > 100 µM (inactive)
- GI50 (UACC-62): 73.1 µM (inactive)
- GI50 (OVCAR-8): > 100 µM (inactive)
- GI50 (TK-10): > 100 µM (inactive)
- GI50 (SN12C): > 100 µM (inactive)
- GI50 (SK-MEL-2): > 100 µM (inactive)
- GI50 (SF-268): > 100 µM (inactive)
- GI50 (A549): > 100 µM (inactive)
- GI50 (SF-539): > 100 µM (inactive)
- GI50 (HOP-62): > 100 µM (inactive)
- GI50 (MCF7): > 100 µM (inactive)
- GI50 (HCT-15): 54.7 µM
- GI50 (A498): > 100 µM (inactive)
- GI50 (ACHN): > 100 µM (inactive)
- GI50 (KM12): > 100 µM (inactive)

Structure (SMILES): Cc1ccc2c(c1)C(=O)/C(=N/Nc1ccc(Cl)cc1)CCO2
- GI50 (SF-295): 24.3 µM (inactive)
- GI50 (LOX IMVI): 35.2 µM (inactive)
- GI50 (IGROV-1): > 100 µM (inactive)
- GI50 (MOLT-4): 71.3 µM (inactive)
- GI50 (NCI-H23): > 100 µM (inactive)
- GI50 (EKVX): > 100 µM (inactive)
- GI50 (UO-31): > 100 µM (inactive)
- GI50 (NCI/ADR-RES): > 100 µM (inactive)
- GI50 (HL-60): 38.9 µM (inactive)
- GI50 (U-251): > 100 µM (inactive)
- GI50 (MDA-MB-435): 71 µM (inactive)
- GI50 (NCI-H522): 56.1 µM (inactive)
- GI50 (SK-MEL-5): 23.3 µM (inactive)
- GI50 (K562): 28 µM (inactive)
- GI50 (OVCAR-5): 69.7 µM (inactive)
- GI50 (SK-OV-3): > 100 µM (inactive)
- GI50 (PC-3): 54.5 µM (inactive)
- GI50 (HCT-116): 50.7 µM (inactive)
- GI50 (SNB-75): > 100 µM (inactive)
- GI50 (Hs-578T): 35.4 µM (inactive)
- GI50 (OVCAR-3): > 100 µM (inactive)
- GI50 (M14): 44 µM (inactive)
- GI50 (NCI-H226): > 100 µM (inactive)
- GI50 (UACC-257): > 100 µM (inactive)
- GI50 (Malme-3M): 46.7 µM (inactive)
- GI50 (DU-145): > 100 µM (inactive)
- GI50 (MDA-N): 65.3 µM (inactive)
- GI50 (CCRF-CEM): 46.7 µM (inactive)
- GI50 (OVCAR-4): 80.4 µM (inactive)
- GI50 (786-0): 37.1 µM (inactive)
- GI50 (HT-29): 26.4 µM (inactive)
- GI50 (COLO 205): 63.5 µM (inactive)
- GI50 (BT-549): > 100 µM (inactive)
- GI50 (T47D): 13.3 µM (inactive)
- GI50 (HOP-92): 72.4 µM (inactive)
- GI50 (MDA-MB-231): > 100 µM (inactive)
- GI50 (SR): 44.8 µM (inactive)
- GI50 (NCI-H460): 92.9 µM (inactive)
- GI50 (HCC 2998): 54.1 µM (inactive)
- GI50 (SNB-19): > 100 µM (inactive)
- GI50 (SW-620): > 100 µM (inactive)
- GI50 (CAKI-1): > 100 µM (inactive)
- GI50 (RPMI-8226): 36.3 µM (inactive)
- GI50 (SK-MEL-28): > 100 µM (inactive)
- GI50 (UACC-62): 50.1 µM (inactive)
- GI50 (OVCAR-8): > 100 µM (inactive)
- GI50 (TK-10): > 100 µM (inactive)
- GI50 (SN12C): > 100 µM (inactive)
- GI50 (SK-MEL-2): 21.2 µM (inactive)
- GI50 (SF-268): > 100 µM (inactive)
- GI50 (A549): 94.6 µM (inactive)
- GI50 (SF-539): > 100 µM (inactive)
- GI50 (HOP-62): > 100 µM (inactive)
- GI50 (MCF7): 58.7 µM (inactive)
- GI50 (HCT-15): 60 µM
- GI50 (A498): > 100 µM (inactive)
- GI50 (ACHN): > 100 µM (inactive)
- GI50 (KM12): 75 µM (inactive)
